{
  "source": "patent US20130183249A1",
  "about": "“Stimulus Sensitive Magnetic Nanocomposite Using Pyrene Polymer, and Contrast Medium Composition Containing the Nanocomposite” (INDUSTRY ACADEMIC COOPERATION FOUNDATION YOUNSEI UNIVERSITY, priority 2010, published 2013)",
  "tested_on": "NIH3T6.7 and MDA-MB-231 cells",
  "assay": "Cell targeting ability and drug release by fluorescence microscopy",
  "settings": "0.05 mM based on doxorubicin, 30 minutes incubation",
  "protocol": "For each of 12 wells, a cover glass was put on a bottom, 3×10^5 of each of NIH3T6.7 and MDA-MB-231 cells were dispensed on the glass per well to incubate for 12 hours, and washed with PBS three times. After the washing with PBS, 0.05 mM of a Herceptin-binding target-specific stimuli-sensitive nanocomposite based on doxorubicin, an IgG-binding stimuli-sensitive nanocomposite as a control group, and doxorubicin were each added to the cells, and incubated for 30 minutes. After the cells were washed with PBS, a dye for a cell nucleus (Hoechst dye) was added to the cells, reacted for 10 minutes and washed with PBS three times, and then the cover glass was fixed to a slide glass to observe microscope images.",
  "data": [
    {"compound": "COc1cccc2c1C(=O)c1c(O)c3c(c(O)c1C2=O)C[C@@](O)(C(=O)CO)C[C@@H]3O[C@H]1C[C@H](N)[C@H](O)[C@H](C)O1", "note": "[Doxorubicin, doxorubicin]", "values": [
      {"measurement": "doxorubicin identified in cell nucleus (microscope images)", "value": "identified from a nucleus of the doxorubicin-treated cell without distinction of cells"}
    ]}
  ]
}
